Patent US10160726B2, “Quinolone derivatives as antibacterials” (priority 2014, dated 2018)
In brackets after ≈: the same amount, converted by molar mass. Like-named read-outs stand apart in the source and are kept apart here.

Experiments:
Assay type in all cases: cell-based
[1] = tested on: P. aeruginosa NB52019 (wild-type PAO1); assay: MIC, broth microdilution (CLSI)
[2] = tested on: E. coli NB27177 (efflux deficient CGSC 11430, ΔtolC732::kan); assay: microbe, parasite or virus in culture; conditions: Escherichia coli, 20 h, read-out: Antibacterial activity (MIC) NB27177
[3] = tested on: S. aureus ATCC 29213 (NB01001); assay: MIC, broth microdilution (CLSI); conditions: Staphylococcus aureus, read-out: Antibacterial activity (MIC) NB01001
[4] = tested on: P. aeruginosa NB52023 (efflux deficient K1542, ΔmexX ΔmexB); assay: microbe, parasite or virus in culture; conditions: Pseudomonas aeruginosa, 20 h, read-out: Antibacterial activity (MIC) NB52023
[5] = tested on: P. aeruginosa NB52023-CDK0006 (gyrA T83I, parC S87L); assay: microbe, parasite or virus in culture; conditions: Pseudomonas aeruginosa, 20 h, read-out: Antibacterial activity (MIC) NB52023-CDK0006
[6] = tested on: S. aureus NB01006-AVR005 (gyrA S84L, grlA S80F, grlB E471K); assay: microbe, parasite or virus in culture; conditions: Staphylococcus aureus, 20 h, read-out: Antibacterial activity (MIC) NB01006-AVR005
[7] = tested on: E. coli ATCC 25922 (NB27001); assay: MIC, broth microdilution (CLSI); conditions: Escherichia coli, read-out: Antibacterial activity (MIC) NB27001
[8] = Pseudomonas aeruginosa, PAO1, 20 h; read-out: Antibacterial activity (MIC) NB52019
[9] = ATCC29213, S. aureus ATCC 29213, 35° C., 20 hours
[10] = ATCC25922, E. coli ATCC 25922, 35° C., 20 hours

SMILES	MIC [1, 8]	MIC [2]	MIC [3, 9]	MIC [4]	MIC [5]	MIC [6]	MIC [7, 10]	MIC ([1]; Pseudomonas aeruginosa; P. aeruginosa wild-type PAO1; 35° C., 20 hours; read-out: Antibacterial activity (MIC) NB52019)	MIC ([1]; Pseudomonas aeruginosa, PAO1, 20 h, read-out: Antibacterial activity (MIC) NB52019)	MIC ([3]; ATCC29213, 20 h)	MIC ([7]; ATCC25922, 20 h)
Cc1c(N2CC[C@@H]([C@H](C)N)C2)c(F)cc2c(/C=C/C(=O)O)cc(=O)n(C3CC3)c12 [Example 22, (E)-3-(7-((R)-3-((S)-1-aminoethyl)pyrrolidin-1-yl)-1-cyclopropyl-6-fluoro-8-methyl-2-oxo-1,2-dihydroquinolin-4-yl)acrylic acid]	> 32 µg/mL	8 µg/mL (≈ 20 µM)	8 µg/mL (≈ 20 µM)	> 32 µg/mL	> 32 µg/mL	8 µg/mL (≈ 20 µM)	32 µg/mL (≈ 80.1 µM)	–	–	–	–
CCc1cc(=O)n(C2CC2)c2c(C)c(N3CC[C@@H]([C@H](C)N)C3)c(F)cc12 [Example 24, 7-((R)-3-((S)-1-aminoethyl)pyrrolidin-1-yl)-1-cyclopropyl-4-ethyl-6-fluoro-8-methylquinolin-2(1H)-one]	> 32 µg/mL	0.06 µg/mL (≈ 0.168 µM)	0.06 µg/mL (≈ 0.168 µM)	> 32 µg/mL	> 32 µg/mL	0.06 µg/mL (≈ 0.168 µM)	8 µg/mL (≈ 22.4 µM)	–	–	–	–
COC(=O)C#Cc1cc(=O)n(C2CC2)c2c(C)c(N3CC[C@@H]([C@H](C)N)C3)c(F)cc12 [Example 26, Methyl 3-(7-((R)-3-((S)-1-aminoethyl)pyrrolidin-1-yl)-1-cyclopropyl-6-fluoro-8-methyl-2-oxo-1,2-dihydroquinolin-4-yl)propiolate]	> 32 µg/mL	1 µg/mL (≈ 2.43 µM)	1 µg/mL (≈ 2.43 µM)	16 µg/mL (≈ 38.9 µM)	32 µg/mL (≈ 77.8 µM)	0.25 µg/mL (≈ 0.608 µM)	32 µg/mL (≈ 77.8 µM)	–	–	–	–
Cc1c(C#N)c2cc(F)c(N3CC[C@@H]([C@H](C)N)C3)c(C)c2n(C2CC2)c1=O [Example 28, 7-((R)-3-((S)-1-aminoethyl)pyrrolidin-1-yl)-1-cyclopropyl-6-fluoro-3,8-dimethyl-2-oxo-1,2-dihydroquinoline-4-carbonitrile]	16 µg/mL (≈ 43.4 µM)	< 0.03 µg/mL	< 0.03 µg/mL	2 µg/mL (≈ 5.43 µM)	0.5 µg/mL (≈ 1.36 µM)	< 0.03 µg/mL	2 µg/mL (≈ 5.43 µM)	–	–	–	–
Cc1c(N2CC[C@H](CN)C2)c(F)cc2c(C#N)cc(=O)n(C3CC3)c12 [Example 29, (R)-7-(3-(aminomethyl)pyrrolidin-1-yl)-1-cyclopropyl-6-fluoro-8-methyl-2-oxo-1,2-dihydroquinoline-4-carbonitrile]	8 µg/mL (≈ 23.5 µM)	0.03 µg/mL (≈ 0.0881 µM)	0.125 µg/mL (≈ 0.367 µM)	2 µg/mL (≈ 5.88 µM)	4 µg/mL (≈ 11.8 µM)	0.125 µg/mL (≈ 0.367 µM)	1 µg/mL (≈ 2.94 µM)	–	–	–	–
Cc1c(N2CC[C@@H](CN)C2)c(F)cc2c(C#N)cc(=O)n(C3CC3)c12 [Example 31, (S)-7-(3-(aminomethyl)pyrrolidin-1-yl)-1-cyclopropyl-6-fluoro-8-methyl-2-oxo-1,2-dihydroquinoline-4-carbonitrile]	8 µg/mL (≈ 23.5 µM)	< 0.03 µg/mL	0.06 µg/mL (≈ 0.176 µM)	2 µg/mL (≈ 5.88 µM)	4 µg/mL (≈ 11.8 µM)	0.06 µg/mL (≈ 0.176 µM)	2 µg/mL (≈ 5.88 µM)	–	–	–	–
Cc1c(N2CCNCC2)c(F)cc2c(C#N)cc(=O)n(C3CC3)c12 [Example 32, 1-cyclopropyl-6-fluoro-8-methyl-2-oxo-7-(piperazin-1-yl)-1,2-dihydroquinoline-4-carbonitrile]	–	0.125 µg/mL (≈ 0.383 µM)	4 µg/mL (≈ 12.3 µM)	16 µg/mL (≈ 49 µM)	32 µg/mL (≈ 98 µM)	2 µg/mL (≈ 6.13 µM)	4 µg/mL (≈ 12.3 µM)	32 µg/mL (≈ 98 µM)	–	–	–
CCOC(=O)c1cc(=O)n(C2CC2)c2c(C)c(N3CC[C@@H]([C@H](C)N)C3)c(F)cc12 [Example 35, ethyl 7-((R)-3-((S)-1-aminoethyl)pyrrolidin-1-yl)-1-cyclopropyl-6-fluoro-8-methyl-2-oxo-1,2-dihydroquinoline-4-carboxylate]	8 µg/mL (≈ 19.9 µM)	< 0.03 µg/mL	0.06 µg/mL (≈ 0.149 µM)	8 µg/mL (≈ 19.9 µM)	8 µg/mL (≈ 19.9 µM)	0.06 µg/mL (≈ 0.149 µM)	4 µg/mL (≈ 9.96 µM)	–	–	–	–
Cc1c(N2CC[C@@H]([C@H](C)N)C2)c(F)cc2c(N)cc(=O)n(C3CC3)c12 [Example 36, 4-amino-7-((R)-3-((S)-1-aminoethyl)pyrrolidin-1-yl)-1-cyclopropyl-6-fluoro-8-methylquinolin-2(1H)-one]	> 16 µg/mL	1 µg/mL (≈ 2.9 µM)	2 µg/mL (≈ 5.81 µM)	16 µg/mL (≈ 46.5 µM)	> 16 µg/mL	1 µg/mL (≈ 2.9 µM)	16 µg/mL (≈ 46.5 µM)	–	–	–	–
Cc1c(N2CC[C@@H]([C@H](C)N)C2)c(F)cc2c(NS(C)(=O)=O)cc(=O)n(C3CC3)c12 [Example 37, N-(7-((R)-3-((S)-1-aminoethyl)pyrrolidin-1-yl)-1-cyclopropyl-6-fluoro-8-methyl-2-oxo-1,2-dihydroquinolin-4-yl)methanesulfonamide]	32 µg/mL (≈ 75.7 µM)	4 µg/mL (≈ 9.47 µM)	8 µg/mL (≈ 18.9 µM)	> 32 µg/mL	> 32 µg/mL	16 µg/mL (≈ 37.9 µM)	32 µg/mL (≈ 75.7 µM)	–	–	–	–
Cc1c(N2CC[C@@H]([C@H](C)N)C2)c(F)cc2c(-c3noc(=O)[nH]3)cc(=O)n(C3CC3)c12 [Example 38, 3-(7-((R)-3-((S)-1-aminoethyl)pyrrolidin-1-yl)-1-cyclopropyl-6-fluoro-8-methyl-2-oxo-1,2-dihydroquinolin-4-yl)-1,2,4-oxadiazol-5(4H)-one]	> 32 µg/mL	2 µg/mL (≈ 4.84 µM)	4 µg/mL (≈ 9.67 µM)	32 µg/mL (≈ 77.4 µM)	> 32 µg/mL	4 µg/mL (≈ 9.67 µM)	32 µg/mL (≈ 77.4 µM)	–	–	–	–
Cc1c(N2CC[C@@H]([C@H](C)N)C2)c(F)cc2c(C(=N)NO)cc(=O)n(C3CC3)c12 [Example 40, 7-((R)-3-((S)-1-aminoethyl)pyrrolidin-1-yl)-1-cyclopropyl-6-fluoro-N-hydroxy-8-methyl-2-oxo-1,2-dihydroquinoline-4-carboximidamide]	16 µg/mL (≈ 41.3 µM)	0.5 µg/mL (≈ 1.29 µM)	4 µg/mL (≈ 10.3 µM)	4 µg/mL (≈ 10.3 µM)	8 µg/mL (≈ 20.6 µM)	4 µg/mL (≈ 10.3 µM)	4 µg/mL (≈ 10.3 µM)	–	–	–	–
Cc1c(N2CC[C@@H]([C@H](C)N)C2)c(F)cc2c(C3=NOS(=O)N3)cc(=O)n(C3CC3)c12 (stereo partly drawn) [Example 41, 7-((R)-3-((S)-1-aminoethyl)pyrrolidin-1-yl)-1-cyclopropyl-6-fluoro-8-methyl-4-(2-oxido-3H-1,2,3,5-oxathiadiazol-4-yl)quinolin-2(1H)-one]	16 µg/mL (≈ 36.9 µM)	0.125 µg/mL (≈ 0.288 µM)	0.5 µg/mL (≈ 1.15 µM)	4 µg/mL (≈ 9.23 µM)	8 µg/mL (≈ 18.5 µM)	0.5 µg/mL (≈ 1.15 µM)	4 µg/mL (≈ 9.23 µM)	–	–	–	–
Cc1c(N2CC[C@@H]([C@H](C)N)C2)c(F)cc2c(Cl)cc(=O)n(C3CC3)c12 [Example 44, 7-((R)-3-((S)-1-aminoethyl)pyrrolidin-1-yl)-4-chloro-1-cyclopropyl-6-fluoro-8-methylquinolin-2(1H)-one]	8 µg/mL (≈ 22 µM)	0.03 µg/mL (≈ 0.0824 µM)	0.06 µg/mL (≈ 0.165 µM)	4 µg/mL (≈ 11 µM)	8 µg/mL (≈ 22 µM)	0.03 µg/mL (≈ 0.0824 µM)	2 µg/mL (≈ 5.5 µM)	–	–	–	–
CC(=O)NCc1cc(=O)n(C2CC2)c2c(C)c(N3CC[C@@H]([C@H](C)N)C3)c(F)cc12 [Example 46, N-((7-((R)-3-((S)-1-aminoethyl)pyrrolidin-1-yl)-1-cyclopropyl-6-fluoro-8-methyl-2-oxo-1,2-dihydroquinolin-4-yl)methyl)acetamide]	32 µg/mL (≈ 79.9 µM)	2 µg/mL (≈ 4.99 µM)	8 µg/mL (≈ 20 µM)	> 32 µg/mL	> 32 µg/mL	2 µg/mL (≈ 4.99 µM)	32 µg/mL (≈ 79.9 µM)	–	–	–	–
Cc1c(N2CC[C@@H]([C@H](C)N)C2)c(F)cc2c(CO)cc(=O)n(C3CC3)c12 [Example 47, 7-((R)-3-((S)-1-aminoethyl)pyrrolidin-1-yl)-1-cyclopropyl-6-fluoro-4-(hydroxymethyl)-8-methylquinolin-2(1H)-one]	16 µg/mL (≈ 44.5 µM)	0.25 µg/mL (≈ 0.696 µM)	0.25 µg/mL (≈ 0.696 µM)	4 µg/mL (≈ 11.1 µM)	8 µg/mL (≈ 22.3 µM)	0.25 µg/mL (≈ 0.696 µM)	16 µg/mL (≈ 44.5 µM)	–	–	–	–
COCc1cc(=O)n(C2CC2)c2c(C)c(N3CC[C@@H]([C@H](C)N)C3)c(F)cc12 [Example 48, 7-((R)-3-((S)-1-aminoethyl)pyrrolidin-1-yl)-1-cyclopropyl-6-fluoro-4-(methoxymethyl)-8-methylquinolin-2(1H)-one]	32 µg/mL (≈ 85.7 µM)	0.06 µg/mL (≈ 0.161 µM)	0.125 µg/mL (≈ 0.335 µM)	16 µg/mL (≈ 42.8 µM)	16 µg/mL (≈ 42.8 µM)	0.125 µg/mL (≈ 0.335 µM)	8 µg/mL (≈ 21.4 µM)	–	–	–	–
Cc1c(N2CC[C@@H]([C@H](C)N)C2)c(F)cc2c(OCCN(C)C)cc(=O)n(C3CC3)c12 [Example 49, 7-((R)-3-((S)-1-aminoethyl)pyrrolidin-1-yl)-1-cyclopropyl-4-(2-(dimethylamino)ethoxy)-6-fluoro-8-methylquinolin-2(1H)-one]	–	0.06 µg/mL (≈ 0.144 µM)	–	4 µg/mL (≈ 9.6 µM)	8 µg/mL (≈ 19.2 µM)	0.25 µg/mL (≈ 0.6 µM)	–	–	8 µg/mL (≈ 19.2 µM)	0.125 µg/mL (≈ 0.3 µM)	1 µg/mL (≈ 2.4 µM)
CC(=O)N[C@@H](C)[C@@H]1CCN(c2c(F)cc3c(OCCN(C)C)cc(=O)n(C4CC4)c3c2C)C1 [Example 50, N—((S)-1-((R)-1-(1-cyclopropyl-4-(2-(dimethylamino)ethoxy)-6-fluoro-8-methyl-2-oxo-1,2-dihydroquinolin-7-yl)pyrrolidin-3-yl)ethyl)acetamide]	> 32 µg/mL	0.125 µg/mL (≈ 0.273 µM)	1 µg/mL (≈ 2.18 µM)	> 32 µg/mL	> 32 µg/mL	2 µg/mL (≈ 4.36 µM)	32 µg/mL (≈ 69.8 µM)	–	–	–	–
